Measured values as given in article PMC6362038, “Secondary structures and cell-penetrating abilities of arginine-rich peptide foldamers” (Scientific Reports, 2019).
Numbered stars: 1 amine (or outer) side, 2 acyl side, 3 side chain; on linkers, the order of the positions; unused ones are H or OH. Square brackets hold non-standard residues; d marks the D form. Peptide text beside a SMILES is read from it. * marks the point of attachment. 5FAM = O=C1OC2(c3ccc(O)cc3Oc3cc(O)ccc32)c2ccc(C(=O)*)cc21; X1 = CO[C@H]1CC(N[*:1])(C(=O)[*:2])C[C@@H]1OC; αMeL = CC(C)C[C@](C)(N)C(=O)O; Ac5c = NC1(C(=O)O)CCCC1

Assays:
CHO-K1 cells [1] = assay: Inhibition of cellular uptake by specific endocytosis inhibitors; type: cell-based; conditions: 30 min pre-incubation 37 °C, 1 µM peptide, 1 h, flow cytometry, n = 3; for uptake in presence of nystatin (caveolae-mediated endocytosis inhibitor): CHO-K1, nystatin 25 µg/mL; for uptake in presence of sucrose (clathrin-mediated endocytosis inhibitor): CHO-K1, sucrose 0.4 M
Method: To obtain further information on the cellular uptake mechanisms of peptides, inhibitory experiments were carried out using specific endocytosis inhibitors (amilorilde: macropinocytosis; sucrose: clathrin-mediated endocytosis; nystatin: caveolae-mediated endocytosis) against CHO-K1 cells (Fig. S5). […] (αMe)Leu peptide appeared to internalize into CHO-K1 cells via all three routes, while Ac5c peptide appeared to internalize mainly via clathrin-mediated endocytosis and caveolae-mediated endocytosis.
CHO-K1 cells were seeded on 24-well culture plates (100,000 cells/well) and incubated in 400 µL of DMEM containing 10% FBS. The medium was then replaced with fresh medium containing 10% FBS in the absence (untreated) or presence of amiloride (5 mM), sucrose (0.4 M), or nystatin (25 µg/mL), cells were pre-incubated at 37 °C for 30 min. A peptide solution was added to each well at a concentration of 1 µM. The medium was removed after 1-h incubation and subsequent operations were conducted in the same manner as cellular uptake experiments.
A c5cAc5c (aMe L e uMe)Leu untreated ami loride su cro se n ystatin
Figure S5. Effects of inhibitors on internalization of peptides against CHO-K1 cells. Error bars represent the standard deviation, n = 3. *P < 0.05, **P < 0.01.

CHO-K1 cells [2] = assay: Cellular uptake of CF-labeled peptides into CHO-K1 cells (flow cytometry); type: cell-based; conditions: n = 3; for cellular uptake, course over incubation time: CHO-K1, 1 µM peptide, 2, 6 and 24 h, compared with peptides of only natural α-amino acids; for cellular uptake, rank among the peptides containing dAAs / cellular uptake compared with Arg peptide: CHO-K1, 1 µM peptide; for cellular uptake, rank among the peptides containing dAAs: 2-24 h; for cellular uptake compared with Arg peptide: DMEM 10% FBS
Method: (§1) Cellular uptake of peptides was assessed against HeLa (Fig. 5a) and CHO-K1 cells (Fig. 5b) at a concentration of 1 µM and various incubation times (2, 6, and 24 h). […] Not only stabilities against protease digestion but also other factors might contribute to prolongation of the cell-penetrating ability of peptides. […] The number of Arg residues in Arg-rich peptides is very important for their cell-penetrating ability, and six Arg are not enough. […] Substitution of Arg in Arg peptide with Ac5c, Ac5c^dOM, or (αMe)Leu positively affected its cell-penetrating ability compared with Aib. In comparison, among the peptides containing dAAs, (αMe)Leu peptide was the best for HeLa cell, Ac5c peptide was the best for CHO-K1 cell, and Ac5c^dOM peptide was the worst for both cell types (Fig. 5). Although the best peptides were different depending on cell type, the worst peptide was same for both cell types. […] Taken together, a stable helical structure by introducing dAAs into Arg-rich peptide enhanced their cell-penetrating abilities.
(§2) HeLa or CHO-K1 cells were seeded on 24-well culture plates (100,000 cells/well) and incubated in 400 µL of DMEM containing 10% FBS. The medium was then replaced with fresh medium, and a peptide solution was added to each well at a concentration of 1 µM. After each incubation time, the medium was removed and cells were washed with ice-cold PBS with heparin (20 units/mL) and trypsinized. After the addition of medium containing 10% FBS, fluorescence intensity was detected and acquired using an On-chip Flow (On-chip Biotechnologies Co., Ltd, Tokyo, Japan). The results are presented as a mean and standard deviation obtained from 3 samples.

[3] = Resistance to protease digestion with pronase; type: in vitro ADME, Streptomyces griseus; conditions: 10 µM peptide in 2.5 × 10^−6 w/v% pronase/PBS, 37 °C, RP-HPLC, α-CHCA internal standard, read-out: intact peptide after incubation with pronase
Excerpt: Next, we examined the stability of peptides against protease digestion using trypsin (Fig. 4a) and pronase (Fig. 4b). One of the advantages of peptide foldamers containing dAAs is their high resistance to degradation by proteases[38]–[40]. Trypsin is a serine protease that cleaves amide bonds at the C terminus of cationic amino acids such as Arg and lysine. Pronase is a non-specific protease mixture produced in the culture supernatant of Streptomyces griseus. Ac5c, Ac5c^dOM, (αMe)Leu, and Leu peptides were incubated with trypsin or pronase for 1, 2, and 4 h, and then rate of intact peptide was evaluated by RP-HPLC using α-cyano-4-hydroxycinnamic acid (α-CHCA) as an internal standard. Leu peptide was promptly degraded by both trypsin and pronase, and reached 0% intact peptide after 4 h incubation in a similar manner to Arg peptide reported previously[24],[25]. On the other hand, approximately 80% of Ac5c, Ac5c^dOM, and (αMe)Leu peptides remained intact even after 4 h incubation. Introduction of dAAs into peptides markedly elevated resistance to protease digestion, whether or not peptides formed stable helical structures. In other words, peptides composed of only natural α-amino acids were easily degraded by proteases independently of their peptide secondary structures.
One-hundred microliters of peptide solution (10 µM) in 2.5 × 10^−6 w/v% trypsin or pronase/phosphate buffer saline (PBS) was incubated at 37 °C for 0, 1, 2, and 4 h. After each incubation time, 250 µL of 1% TFA/PBS solution was added to inactivate the proteases, and 50 µL of 1/2 diluted saturated α-CHCA solution was added as an internal standard, followed by HPLC analysis, which was performed using the above-mentioned conditions.

HeLa cells = assay: Cellular uptake of CF-labeled peptides into HeLa cells (flow cytometry); type: cell-based; conditions: for cellular uptake, course over incubation time: 1 µM peptide, 2, 6 and 24 h, heparin wash, trypsinized, flow cytometry fluorescence, mean of n = 3; for cellular uptake, course over incubation time / cellular uptake compared with Arg peptide: DMEM 10% FBS; for cellular uptake compared with Arg peptide / cellular uptake, rank among the peptides containing dAAs: 1 µM peptide, flow cytometry, n = 3; for cellular uptake compared with Arg peptide: 24 h; for cellular uptake, rank among the peptides containing dAAs: 2-24 h
Method: as §1, §2

| Structure (SMILES) | uptake in presence of amiloride (macropinocytosis inhibitor) (CHO-K1 cells [1]; CHO-K1, amiloride 5 mM) | uptake in presence of nystatin (caveolae-mediated endocytosis inhibitor) (CHO-K1 cells [1]) | uptake in presence of sucrose (clathrin-mediated endocytosis inhibitor) (CHO-K1 cells [1]) | cellular uptake, course over incubation time (CHO-K1 cells [2]) | cellular uptake, rank among the peptides containing dAAs (CHO-K1 cells [2]) | cellular uptake compared with Arg peptide (CHO-K1 cells [2]; 6 h) | cellular uptake compared with Arg peptide (CHO-K1 cells [2]; 24 h) | remaining at 4 h, 10 µM [3] | cellular uptake, course over incubation time (HeLa cells) | cellular uptake compared with Arg peptide (HeLa cells) | cellular uptake, rank among the peptides containing dAAs (HeLa cells) |
| --- | --- | --- | --- | --- | --- | --- | --- | --- | --- | --- | --- |
| N=C(N)NCCC[C@H](NC(=O)CNC(=O)c1ccc2c(c1)C(=O)OC21c2ccc(O)cc2Oc2cc(O)ccc21)C(=O)N[C@@H](CCCNC(=N)N)C(=O)NC1(C(=O)N[C@@H](CCCNC(=N)N)C(=O)N[C@@H](CCCNC(=N)N)C(=O)NC2(C(=O)N[C@@H](CCCNC(=N)N)C(=O)N[C@@H](CCCNC(=N)N)C(=O)NC3(C(N)=O)CCCC3)CCCC2)CCCC1 [Ac5c peptide] (5FAM-GRR[Ac5c]RR[Ac5c]RR[Ac5c]-NH2) | significantly decreased | significantly decreased | significantly decreased | prolonged cell-penetrating ability | the best | higher than that of Arg peptide | higher than that of Arg peptide | ~80% | increased cellular uptake from 2 to 6 h incubations and this was maintained after 24 h incubation | higher than that of Arg peptide | – |
| CO[C@H]1CC(NC(=O)[C@H](CCCNC(=N)N)NC(=O)[C@H](CCCNC(=N)N)NC(=O)C2(NC(=O)[C@H](CCCNC(=N)N)NC(=O)[C@H](CCCNC(=N)N)NC(=O)C3(NC(=O)[C@H](CCCNC(=N)N)NC(=O)[C@H](CCCNC(=N)N)NC(=O)CNC(=O)c4ccc5c(c4)C(=O)OC54c5ccc(O)cc5Oc5cc(O)ccc54)C[C@H](OC)[C@@H](OC)C3)C[C@H](OC)[C@@H](OC)C2)(C(N)=O)C[C@@H]1OC [Ac5c^dOM peptide] (5FAM-GRR[X1]RR[X1]RR[X1]-NH2) | – | – | – | prolonged cell-penetrating ability | the worst | – | higher than that of Arg peptide | ~80% | increased up to 24 h | higher than that of Arg peptide | the worst |
| CC(C)C[C@](C)(NC(=O)[C@H](CCCNC(=N)N)NC(=O)[C@H](CCCNC(=N)N)NC(=O)[C@](C)(CC(C)C)NC(=O)[C@H](CCCNC(=N)N)NC(=O)[C@H](CCCNC(=N)N)NC(=O)[C@](C)(CC(C)C)NC(=O)[C@H](CCCNC(=N)N)NC(=O)[C@H](CCCNC(=N)N)NC(=O)CNC(=O)c1ccc2c(c1)C(=O)OC21c2ccc(O)cc2Oc2cc(O)ccc21)C(N)=O [(αMe)Leu peptide] (5FAM-GRR[αMeL]RR[αMeL]RR[αMeL]-NH2) | – | significantly decreased | significantly decreased | prolonged cell-penetrating ability | – | higher than that of Arg peptide | higher than that of Arg peptide | ~80% | increased cellular uptake from 2 to 6 h incubations and this was maintained after 24 h incubation | higher than that of Arg peptide | the best |
